Reference: patent publication US20260256741A1, “ANTICANCER MALEIMIDE DERIVATIVES FOR USE WITH IMMUNE CHECKPOINT BLOCKADE” (BROWN UNIVERSITY, priority 2022, published 2026)

What was measured:
[1] = Patient plasma cytokine profiling (Luminex 200), Phase 1 trial; assay type: in vivo, human
Procedure: Human cell line culture supernatants were analyzed using an R&D systems Human Premixed Multi-Analyte Kit (R&D Systems, Inc., Minneapolis, MN, USA) and a Luminex 200 (RRID: SCR_018025) Instrument (LX200-XPON-RUO, Luminex Corporation, Austin, TX, USA) according to the manufacturer's instructions. Sample levels of TNF-α, 4-1BB/TNFRSF9/CD137, IL-8/CXCL8, Ferritin, IFN-β, IL-10, CCL2/JE/MCP-1, VEGF, CXCL13/BLC/BCA-1, IFN-γ, CCL20/MIP-3 α, CCL3/MIP-1 α, CCL22/MDC, CCL4/MIP-1 β, Fas Ligand/TNFSF6, IL-17/IL-17A, IL-2, BAFF/BLyS/TNFSF13B, GM-CSF, CXCL5/ENA-78, TRANCE/TNFSF11/RANK L, CXCL9/MIG, G-CSF, IFN-γ R1/CD119, VEGFR3/Flt-4, C-Reactive Protein/CRP, CXCL11/I-TAC, IL-21, CXCL14/BRAK, IL-6, Fas/TNFRSF6/CD95, TRAIL R3/TNFRSF10C, IL-4, CCL5/RANTES, PD-L1/B7-H1, CCL7/MCP-3/MARC, Chitinase 3-like 1, CXCL10/IP-10/CRG-2, IL-1 β/IL-1F2, IL-7, Prolactin, CCL8/MCP-2, TRAIL R2/TNFRSF10B, M-CSF, IL-15, Granzyme B, IFN-α, TREM-1, IL-12/IL-23 p40, TRAIL/TNFSF10, CCL11/Eotaxin, and IL-18/IL-1F4. Quantitative analysis with 6 standards and a minimum of 50 counts per bead region was used with the Luminex to generate analyte values reported as picograms/milliliter (pg/mL). Sample concentrations less than the lower limit of detection for each particular analyte were recoded as the lower limit value divided by ten. […]

[2] = Tolerability in the CT-26 BALB/c model (body weight, blood count, serum chemistry); set-up: species or system BALB/c mice; settings: mouse, in vivo
Procedure: The experimental in vivo protocol (Protocol #19-01-003) was approved by the Institutional Animal Care and Use Committee of Brown University (Providence, RI, USA). Six to 7 weeks-old female BALB/c mice (RRID: IMSR_JAX:000651) were purchased from Taconic. 50,000 cells were suspended in 50 μL ice-cold PBS and 50 μL Matrigel (Catalog # 354234, Corning, New York, USA), and 100 uL was injected subcutaneously into the rear flanks. Once tumor volume reached at least 100 mm^3, mice were randomly assigned to one of seven groups (3 mice/group): Control (isotype), elraglusib, elraglusib+Isotype, anti-PD-1, anti-PD-L1, elraglusib+anti-PD-1, and elraglusib+anti-PD-L1. All treatments were delivered by IP injection on the following dosing schedule: Isotype (70 mg/kg, twice a week), elraglusib (70 mg/kg, twice a week), anti-PD-1 (10 mg/kg, twice a week), anti-PD-L1 (10 mg/kg, twice a week). The treatment continued until mice developed signs of discomfort from excessive tumor growth. Mice were weighed once a week to monitor signs of drug toxicity. The length (L) and width (W) of the masses were measured three times per week with a digital caliper, and the tumor volume was calculated by applying the formula: 0.5LW2. Collection of whole blood and serum was performed by cardiac puncture and sent to Antech GLP for blood cell count and chemistry tests, or in-house cytokine profiling. […]

SW480 MSS CRC cells = test: Multicolor co-culture of SW480 CRC cells and TALL-104 T cells, EthD-1 dead cells; assay type: cell-based, human; settings: for percentage of dead cells out of total cells (average, normalized): 24 hours, 1:1 E:T
Procedure: 10,000 HCT-116, SW480, or HT-29 cells were plated per well in a clear-bottom, black-walled 48-well tissue culture plate and were allowed to adhere overnight. […] CRC cells were labeled using CellTracker™ Green CMFDA (5-chloromethylfluorescein diacetate), immune cells (NK-92, TALL-104) were labeled using CellTracker™ Blue CMAC Dye (7-amino-4-chloromethylcoumarin), and ethidium homodimer-1 (EthD-1) was used as a marker of cell death (Invitrogen, Waltham, MA). 10× images were captured using a Nikon Ti-U Inverted Fluorescence Microscope and NIS-Elements F Package imaging software 3.22.00 Build 710 (Nikon Instruments Inc, USA). The number of red/green color cells in random fields was determined using thresholding and particle analysis in the Fiji modification (RRID: SCR_002285) of ImageJ and expressed as a dead/live cell ratio. Normalization was carried out by subtracting the percentage of cell death due to drug or vehicle control (DMSO) only from the percentage of dead cells observed in the co-culture of tumor and immune cells treated with the drug. At least 100 cells were evaluated per sample, with 3 independent replicates. Statistical analysis was done using GraphPad Prism 9 (RRID: SCR_002798).

NK-92 cells = test: Cytokine profiling of cell culture supernatant (Luminex 200), NK-92; assay type: cell-based, human
Procedure: Cells were plated at 3.5×10^4 cells in a 48-well plate (Thermo Fisher Scientific, Waltham, MA, USA) in complete medium and incubated at 37° C. with 5% CO2. At 24 hours after plating, almost all the tumor cells were adherent to the bottom of the flask and the complete medium was replaced with the drug-containing medium. […] On the day of analysis, samples were thawed and centrifuged to remove cellular debris.
Human cell line culture supernatants were analyzed using an R&D systems Human Premixed Multi-Analyte Kit (R&D Systems, Inc., Minneapolis, MN, USA) and a Luminex 200 (RRID: SCR_018025) Instrument (LX200-XPON-RUO, Luminex Corporation, Austin, TX, USA) according to the manufacturer's instructions. Sample levels of TNF-α, 4-1BB/TNFRSF9/CD137, IL-8/CXCL8, Ferritin, IFN-β, IL-10, CCL2/JE/MCP-1, VEGF, CXCL13/BLC/BCA-1, IFN-γ, CCL20/MIP-3 α, CCL3/MIP-1 α, CCL22/MDC, CCL4/MIP-1 β, Fas Ligand/TNFSF6, IL-17/IL-17A, IL-2, BAFF/BLyS/TNFSF13B, GM-CSF, CXCL5/ENA-78, TRANCE/TNFSF11/RANK L, CXCL9/MIG, G-CSF, IFN-γ R1/CD119, VEGFR3/Flt-4, C-Reactive Protein/CRP, CXCL11/I-TAC, IL-21, CXCL14/BRAK, IL-6, Fas/TNFRSF6/CD95, TRAIL R3/TNFRSF10C, IL-4, CCL5/RANTES, PD-L1/B7-H1, CCL7/MCP-3/MARC, Chitinase 3-like 1, CXCL10/IP-10/CRG-2, IL-1 β/IL-1F2, IL-7, Prolactin, CCL8/MCP-2, TRAIL R2/TNFRSF10B, M-CSF, IL-15, Granzyme B, IFN-α, TREM-1, IL-12/IL-23 p40, TRAIL/TNFSF10, CCL11/Eotaxin, and IL-18/IL-1F4. Quantitative analysis with 6 standards and a minimum of 50 counts per bead region was used with the Luminex to generate analyte values reported as picograms/milliliter (pg/mL). Sample concentrations less than the lower limit of detection for each particular analyte were recoded as the lower limit value divided by ten. Sample concentrations above the upper limit of detection for a particular analyte were recoded as the upper limit of detection.

**Q.** For `Cn1cc(C2=C(c3coc4ccc(F)cc34)C(=O)NC2=O)c2cc3c(cc21)OCO3` [elraglusib, 3-(5-fluorobenzofuran-3-yl)-4-(5-methyl-5H-[1,3]dioxolo[4,5-f]indol-7-yl)-1H-pyrrole-2,5-dione], which “plasma cytokines, chemokines and growth factors (many of the analytes) vs baseline” value ([1]; 8- and 24-hours post-dose) is on record?
**A.** upregulated

**Q.** And the “plasma expression of many of the analytes in the panel” value ([1]; patients receiving a 7 mg/kg dose, 8- and 24-hour post-dose)?
**A.** increased expression

**Q.** What about the “renal function (BUN, creatinine, electrolytes)” value [2] of the same molecule?
**A.** maintained normal renal function

**Q.** What about the “percentage of dead cells out of total cells (average, normalized)” value (SW480 MSS CRC cells; co-culture with TALL-104, 5 μM) of the same molecule?
**A.** 60%

**Q.** And the “percentage of dead cells out of total cells (average, normalized)” value (SW480 MSS CRC cells; co-culture with TALL-104, 10 μM)?
**A.** 65%

**Q.** What about the “tumor cell death in SW480 monocultures” value (SW480 MSS CRC cells; drug only, no immune cells) of the same molecule?
**A.** limited tumor cell death

**Q.** What about the “percentage of dead cells (average, normalized)” value (SW480 MSS CRC cells; tumor cells pre-treated with 5 μM for 24 hours, then 24-hour co-culture with TALL-104) of the same molecule?
**A.** 65%

**Q.** And the “IFN-γ concentration in supernatant” value (NK-92 cells; 1 μM, 48 hours)?
**A.** increases

**Q.** And the “TRAIL concentration in supernatant” value (NK-92 cells; 1 μM, 48 hours)?
**A.** increases

**Q.** And the “secreted granzyme B concentration” value (NK-92 cells; 1 μM, 48 hours)?
**A.** decreases

**Q.** And the “IFN-γ in cell culture supernatant” value (NK-92 cells; 24 hours treatment vs DMSO)?
**A.** significant increase in IFN-γ
